Results taken from patent US9707283B2, “Genetically modified babesia parasites expressing protective tick antigens and uses thereof” (The United States of America as represented by the …, priority 2007, dated 2017).
≈ marks a conversion by molar mass, not a printed value.

Assays:
B. bovis Mo7 strain = experiment: Blasticidin inhibition of B. bovis growth in in vitro cultures; assay type: cell-based, Babesia bovis
Procedure: B. bovis parasites of the Mo7 strain were cultured in ˜1 ml cultures in 24 well plates containing 10% bovine red blood cells. Triplicate wells were cultured with or without increasing amounts of blasticidin added to the culture media at […], 2.4, and 4.8 μg/ml, prepared from a 5 mg/ml stock solution of blasticidin (Invitrogen) in sterile water, for three consecutive days. Culture media was replaced daily. The percentage of parasitized erythrocytes (ppe) was estimated by microscopic counting of Diff-Quik (Dade Behring) stained slides as described (Suarez and McElwain, (2008) Exp Parasitol. 118: 498-504). Percentage B. bovis inhibition was calculated by dividing the mean ppe in triplicate blasticidin treated wells by the mean ppe in triplicate control wells grown in the absence of blasticidin, and multiplying by 100.
To determine whether B. bovis growth could be inhibited with blasticidin, and to estimate the concentration of blasticidin appropriate for establishing a blasticidin/blasticidin deaminase (bsd) transfection system, B. bovis Mo7 strain parasites were cultured in the presence of varying concentrations of blasticidin ranging from 0 to 5 μg/ml in triplicate wells. The percentage of parasitized erythrocytes (ppe) in each well was determined for the first three days after splitting the cultures in each well to a starting ppe of 0.5%. […] Subsequent stable transfection experiments were performed using either 0.3 or 0.6 μg/ml, blasticidin.

[1] = test system: B. bovis control parasites transfected with pBS; experiment: Growth curves of mock pBS-transfected control parasites with blasticidin; assay type: cell-based, Babesia bovis; conditions: blasticidin at 6.4 μg/ml
Procedure: (§1) Growth characteristics of the blasticidin selected parasite line 1-2-124 were examined and compared with mock pBS-transfected control parasites in the presence or absence of 6.4 μg/ml blasticidin. […] In addition, no differences were observed between growth rates of parasite cell line 1-2-124 and control parasites in the absence of blasticidin.

[2] = test system: B. bovis transfected parasite line 1-2-124 (gfp-bsd); experiment: Growth curves of blasticidin selected parasite line 1-2-124 with blasticidin; assay type: cell-based, Babesia bovis; conditions: blasticidin at 6.4 μg/ml, 10 times higher than used for original selection
Procedure: as §1

[3] = test system: Plasmodium falciparum parasites; conditions: calculated for Plasmodium falciparum parasites, given for comparison; cited from earlier work

## CN(CC[C@H](N)CC(=O)N[C@H]1C=C[C@H](n2ccc(N)nc2=O)O[C@@H]1C(=O)O)C(=N)N [blasticidin]
B. bovis Mo7 strain; Mo7 strain, in vitro culture, after three days of drug selection, percentage of parasitized erythrocytes
  50% inhibitory concentration of blasticidin (IC50): ~0.4 µg/mL
B. bovis Mo7 strain; Mo7 strain, in vitro culture, three days
  concentration of blasticidin resulting in negligible parasite growth: 0.64 to 1.25 µg/mL
B. bovis Mo7 strain; blasticidin dose of 5 μg/ml, after three days in culture
  infected erythrocytes in stained slides: No B. bovis infected erythrocytes could be detected
[1]
  parasite growth in the presence of blasticidin: not able to grow
[2]
  parasite growth with or without blasticidin: able to grow at similar rates
[3]
  IC50: 0.35 µg/mL (≈ 0.829 µM)
